Results from patent US8580854B2, “Methods of suppression of rage gene expression and rage triggered inflammatory genes by selected age-inhibitors” (City of Hope, priority 2005, dated 2013).

What was measured:
STZ-diabetic rats [1] = test: Body weight, glycemic control and albuminuria in STZ-induced diabetic rats given LR-90 in drinking water for 32 weeks; type: in vivo, rat
STZ-diabetic rats [2] = test: as above; type: in vivo, rat; remark: listed apart in the source
Description: (§1) Animal studies were carried out in compliance with policies outlined in “The Guide for the care and Handling of Laboratory Animals” (NIH Publication No. 85-23), which have been approved by the City of Hope National Medical Center Animal Care Committee. Induction of diabetes by STZ and all other procedures were according to the previously published article on LR-90 (25), except that in the present study the diabetic rats under treatment were randomized in 5 groups of ten each: one diabetic control group (0 mg/L), one group receiving 2.5 mg/L, one group receiving 10 mg/L, a third group receiving 20 mg/L and a fourth group receiving 50 mg/L of LR-90 in drinking water (FIG. 1). Both plasma glucose and body weight were checked before administration of the drug, and no differences were detected among the two non-diabetic groups and five diabetic treatment groups. All animals were housed individually and were given free access to food (Purina rodent chow 5001, Ralston Purina, Richmond, Ind., USA) and water. Glycemic control and body weights were monitored periodically. In order to limit hyperglycemia and ensure that animals maintained body weight, diabetic animals received 3 IU of ultralente insulin (Humulin U, Eli Lilly, Indianapolis, Ind., USA) two to three times per week. The study was carried out over 32 weeks.
(§2) Blood (from the tail vein) and urine samples were collected from rats for glycemic control analysis and albuminuria measurements. Plasma glucose was measured using a glucose analyzer machine (YSI 2300 STAT, Yellowsprings, Ohio, USA). HbAlc concentration was measured by HPLC (BioRad DIAMAT, Hercules, Calif., USA). Total plasma triglycerides and cholesterol concentrations were quantified at the end of the study using the Vitros 250 Chemistry System (Johnson & Johnson, Rochester, N.Y., USA). Progression of renal dysfunction was assessed by measuring urinary albumin-to-creatinine ratio (ACR). Rats were housed in metabolic cages (Nalge, Rochester, N.Y., USA) for 24 hr and urine was collected in a collection beaker with several drops of toluene to inhibit microbial growth. Urinary albumin and creatinine concentrations were quantified immunologically using the Nephrat/Creatinine Companion kits (Exocell), and the ACR value was calculated for each rat.
(§3) At the end of study, the rats were weighed and anaesthetized with isofluorane and blood was drawn by heart puncture and transferred into heparinized and non-heparinized vacutainer tubes on ice. These blood samples were later centifuged for plasma and serum collection respectively, and stored at −70° C. until the time of analysis. Rats were killed by over-anesthetization and cardiac puncture and the kidneys were removed immediately, weighed, decapsulated and rinsed in PBS buffer. Sections of the kidneys were stored in 10% NBF for subsequent microscopic examinations and immunohistochemistry.
Statistical analyses were performed using Prism software (GraphPad, San Diego, Calif., USA). Unless otherwise indicated, data are presented as Means±Std. Group comparisons were analyzed using one-way ANOVA and subsequent post-hoc analysis by Tukey's test. A P value of less than 0.05 was considered statistically significant.

STZ-diabetic rats [3] = test: Total plasma triglycerides and cholesterol in STZ-diabetic rats; type: in vivo, rat
Description: Animal studies were carried out in compliance with policies outlined in “The Guide for the care and Handling of Laboratory Animals” (NIH Publication No. 85-23), which have been approved by the City of Hope National Medical Center Animal Care Committee. Induction of diabetes by STZ and all other procedures were according to the previously published article on LR-90 (25), except that in the present study the diabetic rats under treatment were randomized in 5 groups of ten each: one diabetic control group (0 mg/L), […] (FIG. 1). Both plasma glucose and body weight were checked before administration of the drug, and no differences were detected among the two non-diabetic groups and five diabetic treatment groups. All animals were housed individually and were given free access to food (Purina rodent chow 5001, Ralston Purina, Richmond, Ind., USA) and water. Glycemic control and body weights were monitored periodically. In order to limit hyperglycemia and ensure that animals maintained body weight, diabetic animals received 3 IU of ultralente insulin (Humulin U, Eli Lilly, Indianapolis, Ind., USA) two to three times per week. The study was carried out over 32 weeks.
as §2

RAGE [4] = test: S100b-induced RAGE mRNA expression on THP-1 monocytes (RT-PCR); type: cell-based, human; settings: THP-1, pre-treated 1 hr with 25-200 ug/ml, S100b 4 hr; statistically significant at 100 and 200 ug/ml
Description: (§4) Human THP-1 monocytic cells were obtained from the American Type Culture Collection and cultured as described (27) in RPMI 1640 medium supplemented with 10% fetal calf serum (FCS), glutamine, HEPES, streptomycin/penicillin ([…]/100 units/ml), 50 uM-mercaptoethanol, and 5.5 mM D-glucose in a 5% CO2 incubator at 37° C. THP-1 cells (5×10^5 cells/ml) in 4 ml of medium were pre-treated with various concentrations of LR-90 (0, 25, 50, 100 and 200 ug/ml; prepared in 20 mM stock solution in DMSO) for 1 hr. Control cells received DMSO vehicle only. Thereafter, S100b ([…]) was added and cells re-incubated for 4 hr. The cell suspension was then centrifuged at 200 g, the supernatant was removed and the cell pellet was frozen at −70° C. for subsequent RNA extraction.
(§5) RNA Extraction and Relative RT-PCR-Total RNA was isolated by the RNA-STAT-60 reagent method (Teltest, Friendswood, Tex.), and […] was used for the RT reaction using a Gene Amp RNA PCR kit. […] PCR products were fractionated on 2.5% agarose gels, photographed using Alpha Imager 2000, and analyzed with Quantity 1 software (Bio-Rad Laboratories, Hercules, Calif.). Results were expressed as fold stimulation over control after normalizing with paired 18S RNA gene.
(§6) Data Analyses. […] Group comparisons were analyzed using one-way ANOVA and subsequent post-hoc analysis by Tukey's test. […]

THP-1 cells = test: Cell viability test on THP-1 cells (cell counter, Trypan Blue); type: cell-based, human
Description: Cell Viability Test—THP-1 cells were seeded onto 6-well plates at a concentration of ˜5×10^5/ml in RPMI medium containing 10% FCS as above, and then incubated with various concentrations of LR-90 or control medium alone for 24 hr at 37° C., 5% CO2. After incubation, overall cell counts were measured using a cell counter (Coulter Z1 Cell and Particle Counter, Beckman Coulter Inc., Fullerton, Calif.), and the number of viable cells determined by hemocytometer counts of Trypan Blue—impermeable cells.

RAGE [5] = test: Immunohistochemical staining of renal RAGE protein expression; type: in vivo, rat; settings: diabetic rats, increasing concentrations; 25 and 50 mg/L best inhibitory effects
Excerpt: (§7) Formalin-fixed […] embedded kidney sections ([…]) were mounted on slides and stained with 6D12 monoclonal anti-CML-AGE, polyclonal rabbit anti-RAGE and polyclonal goat anti-nitrotyrosine antibodies as described before (25). […] Similarly, RAGE protein expression in the glomeruli was visibly higher in diabetic rats compared with non-diabetic animals (FIG. 5).

CML-AGE = test: Immunohistochemical staining of renal CML-AGE accumulation; type: in vivo, rat; settings: diabetic rats, increasing concentrations; 25 and 50 mg/L best inhibitory effects
Excerpt: as §7

MCP-1 [6] = test: S100b-induced MCP-1 mRNA expression on THP-1 monocytes (RT-PCR); type: cell-based, human; settings: THP-1, pre-treated 1 hr with 25-200 ug/ml, S100b 4 hr; statistically significant at 100 and 200 ug/ml
Description: as §4, §5, §6

[7] = system: NADPH oxidase (gp91^phox subunit); test: S100b-induced NADPH oxidase mRNA expression on THP-1 monocytes (RT-PCR); type: cell-based, human; settings: THP-1, pre-treated 1 hr with 25-200 ug/ml, S100b 4 hr; statistically significant at 100 and 200 ug/ml
Description: as §4, §5, §6

MCP-1 [8] = test: Secreted MCP-1 levels of THP-1 cells by ELISA; type: cell-based, human; settings: THP-1 supernatants
Description: Measurement of MCP-1 levels by ELISA. Supernatants of THP-1 cells (5×10^5 cells/ml) cultured in RPMI 1640 medium containing 2% FBS for 18 hrs under control or LR-90 treated conditions were used to assay secreted MCP-1 levels using the Quantikine ELISA kit. Medium alone without cells was incubated under the same conditions and used as blank control for the ELISA.
Data Analyses. Statistical analyses were performed using Prism software (GraphPad, San Diego, Calif., USA). Unless otherwise indicated, data are presented as Means±Std. Group comparisons were analyzed using one-way ANOVA and subsequent post-hoc analysis by Tukey's test. A P value of less than 0.05 was considered statistically significant.

non-diabetic rats = test: Non-diabetic control rats given LR-90 in drinking water for 32 weeks; type: in vivo, rat
Description: as §1, §2
At the end of study, the rats were weighed and anaesthetized with isofluorane and blood was drawn by heart puncture and transferred into heparinized and non-heparinized vacutainer tubes on ice. These blood samples were later centifuged for plasma and serum collection respectively, and stored at −70° C. until the time of analysis. […]
Statistical analyses were performed using Prism software (GraphPad, San Diego, Calif., USA). […] Group comparisons were analyzed using one-way ANOVA and subsequent post-hoc analysis by Tukey's test. […]

kidneys of diabetic rats = test: Kidney histology (PAS and Trichrome staining) in STZ-diabetic rats; type: in vivo, rat
Description: as §3

COX-2 = test: S100b-induced COX-2 mRNA expression on THP-1 monocytes (RT-PCR); type: cell-based, human; settings: THP-1, pre-treated 1 hr with 25-200 ug/ml, S100b 4 hr; statistically significant at 100 and 200 ug/ml
Description: as §4, §5, §6

[9] = system: rats fed a diet rich in cholesterol; settings: cited from earlier work
hemoglobin = hemoglobin (Homo sapiens, UniProt P68871+P69905); settings: synergistic with 2,3-bisphosphoglycerate; cited from earlier work
[10] = 25 mg per liter drinking water daily
[11] = 2.5 mg per liter drinking water daily
[12] = 10 mg per liter drinking water daily
[13] = 50 mg per liter drinking water daily
[14] = streptozotocin-induced diabetic rats, summary statement
[15] = non-diabetic rats, 50 mg per liter drinking water daily
[16] = marked difference at 25 and 50 mg/L

Chain of hemoglobin (P69905 2-142 limits assumed): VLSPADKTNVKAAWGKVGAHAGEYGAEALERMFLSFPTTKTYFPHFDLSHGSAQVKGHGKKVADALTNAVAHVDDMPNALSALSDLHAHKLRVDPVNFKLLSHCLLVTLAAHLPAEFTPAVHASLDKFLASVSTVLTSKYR
Chain of hemoglobin (P68871 2-147 limits assumed): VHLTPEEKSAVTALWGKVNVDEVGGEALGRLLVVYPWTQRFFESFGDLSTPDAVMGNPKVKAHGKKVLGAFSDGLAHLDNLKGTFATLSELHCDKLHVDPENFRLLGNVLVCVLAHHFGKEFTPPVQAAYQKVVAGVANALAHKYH

CC(C)(Oc1ccc(NC(=O)Nc2ccc(Cc3ccc(NC(=O)Nc4ccc(OC(C)(C)C(=O)O)cc4)c(Cl)c3)cc2Cl)cc1)C(=O)O [LR-90]
HbA1c (STZ-diabetic rats [1]; [10]): 2.9 ± 0.4 % | Plasma Glucose (STZ-diabetic rats [1]; [10]): 26.7 ± 2.4 mmol/L | ACR (urinary albumin-to-creatinine ratio) (STZ-diabetic rats [1]; 25 mg per liter drinking water daily, p < 0.05 vs. diabetic rats): 1.75 ± 1.43 mg/mg | rise in ACR (STZ-diabetic rats [1]; 25 and 50 mg/L doses statistically significant vs. untreated diabetic animals): inhibited the rise in ACR in almost dose-dependent manner | ACR (urinary albumin-to-creatinine ratio) (STZ-diabetic rats [2]; [11]): 2.35 ± 1.96 mg/mg | HbA1c (STZ-diabetic rats [2]; [11]): 2.6 ± 0.6 % | Plasma Glucose (STZ-diabetic rats [2]; [11]): 29.9 ± 5.9 mmol/L | ACR (urinary albumin-to-creatinine ratio) (STZ-diabetic rats [2]; [12]): 2.60 ± 1.74 mg/mg | HbA1c (STZ-diabetic rats [2]; [12]): 3.0 ± 0.4 % | Plasma Glucose (STZ-diabetic rats [2]; [12]): 30.8 ± 2.9 mmol/L | HbA1c (STZ-diabetic rats [2]; [13]): 3.0 ± 0.2 % | Plasma Glucose (STZ-diabetic rats [2]; [13]): 31.6 ± 3.9 mmol/L | ACR (urinary albumin-to-creatinine ratio) (STZ-diabetic rats [2]; 50 mg per liter drinking water daily, p < 0.05 vs. diabetic rats): 1.39 ± 1.17 mg/mg | effect on HbAlc concentration (STZ-diabetic rats [2]; various doses): no affect | effect on plasma glucose concentration (STZ-diabetic rats [2]; various doses): no affect | reduction in triglyceride concentration (STZ-diabetic rats [3]; diabetic rats, 25 mg/L): ≥ 60% | reduction in triglyceride concentration (STZ-diabetic rats [3]; diabetic rats, 50 mg/L): ≥ 60% | cholesterol concentration relative to non-diabetic animals (STZ-diabetic rats [3]; diabetic rats, all concentrations tested with the exception of 10 mg/L): nearly normalized | reduction in triglyceride concentration (STZ-diabetic rats [3]; diabetic rats, lowest concentration (25 mg/L) tested): ~50% | reduction of increased concentration of cholesterol (STZ-diabetic rats [3]; [14]): more than 50% | reduction of increased concentration of triglycerides (STZ-diabetic rats [3]; [14]): more than 50% | S100b-induced RAGE mRNA expression (RAGE [4]): profoundly suppressed | cell viability (Trypan blue staining) (THP-1 cells): viable | cell counts after incubation (THP-1 cells; THP-1, same concentrations as in S100b experiments, 24 hr): normal and statistically similar to the untreated cells | RAGE protein expression in the glomeruli (RAGE [5]): visibly reduced | CML-AGE accumulation in kidney glomeruli and cortical tubules (CML-AGE): visibly reduced | S100b-induced MCP-1 mRNA expression (MCP-1 [6]): profoundly suppressed | S100b-induced NADPH oxidase mRNA expression [7]: profoundly suppressed | MCP-1 protein expression (secreted, ELISA) (MCP-1 [8]): inhibited MCP-1 protein expression in a concentration-dependent manner | effect on lipid metabolism (non-diabetic rats; non-diabetic animals): no effect | ACR (urinary albumin-to-creatinine ratio) (non-diabetic rats; [15]): 0.42 ± 0.32 mg/mg | HbA1c (non-diabetic rats; [15]): 1.2 ± 0.1% | Plasma Glucose (non-diabetic rats; [15]): 8.9 ± 1.0 mmol/L | cell infiltration in the renal interstitium (kidneys of diabetic rats): prevented cell infiltration | mesangial expansion and basement membrane thickening of the kidneys (kidneys of diabetic rats): prevented mesangial expansion and basement membrane thickening | collagen deposition and tubular degeneration in the kidney glomeruli (Trichrome staining) (kidneys of diabetic rats; [16]): prevented collagen deposition and tubular degeneration | levels of PAS-positive materials in kidney glomeruli (kidneys of diabetic rats; [16]): reduced the levels of PAS-positive materials | S100b-induced COX-2 mRNA expression (COX-2): profoundly suppressed

N-4-(nitrophthalimido)phenoxyisobutyric acid [LR-16]
low-density lipoproteins (LDL) [9]: lower | serum cholesterol [9]: lower | effect on oxygen affinity of hemoglobin molecules (hemoglobin): allosteric effector
